# From a melting point compilation (Tetko et al.)
# Peptide text beside a SMILES is read from it.
row,melting point [°C],Compound
1,301,CC1(C)OC(=O)C(=Cc2ccc([N+](=O)[O-])cc2)C(=O)O1
2,43.8,CCCCC(CC)(CO)CO
3,-45,CCC1COC(=O)O1 (configuration not stated)
4,245,O=C(O)C1=Cc2cc(Cl)ccc2OC1
5,227 to 230,CSc1sc(C(=O)O)c(Cl)c1S(=O)(=O)C(C)C
6,168 to 172,O=C(Cl)N1c2ccccc2Sc2ccccc21
7,154,O=c1[nH]c2ccccc2n1CCCN1CCN(C(c2ccccc2)c2ccccc2)CC1
8,6.5,CC(=O)NCCS
9,138 to 139,CC(C)(C)OC(=O)N1CCN(CCC(=O)O)CC1
10,153 to 154,O=C(CCl)N[C@@H](Cc1ccc(O)cc1)C(=O)O
11,113 to 115,O=C(CBr)c1ccc(-c2ccsc2)cc1
12,211,CCOC(=O)c1nn(-c2ccc(C)cc2)c(C)c1C(=O)C1=NOC2C(=O)N(c3ccc(F)cc3)C(=O)C12 (configuration not stated)
13,166,COc1ccc(N2C(=O)C3ON=C(C(=O)c4ccccc4)C3C2=O)cc1 (configuration not stated)
14,157 to 158,Nc1ccc(Cl)cc1C(=O)NCc1cccs1
15,288,Cc1c(Br)c(Br)c(Br)c(Br)c1Br
16,131 to 136,N#Cc1ccc2cccc(O)c2n1
17,78 to 81,O=C(O)C1CCN(C(=O)OCc2ccccc2)CC1
18,230,Cc1nc2ccc(C(=O)O)cc2nc1C
19,23,C=CCCCCCCCCCCCCCCCCC
20,194,COc1ccccc1C1(C)CCc2oc3c(Br)cc(Br)cc3c2-c2oc(C)cc21 (configuration not stated)
21,73,O=Cc1ccccc1Sc1ccc(Cl)cc1
22,134,O=C(SSC(=O)c1ccccc1)c1ccccc1
23,16.7,c1cc2c(c3c1CCCC3)CCCC2

row,melting point [°C],Compound
1,47 to 52,O=C(Cl)C(Cl)(c1ccccc1)c1ccccc1
2,204 to 208,O=Cc1ccc(-c2ccc([N+](=O)[O-])cc2)o1
3,72,Clc1cc(C(Cl)Cl)c(Cl)cc1C(Cl)Cl
4,56,Cc1cccc2c1CC2=O
5,188,Cc1c(F)ccc(C(=O)O)c1Cl
6,46,CCOC(=O)NN
7,166 to 167,CCCCCOC(=O)C1=C(C)NC(=O)NC1c1ccco1 (configuration not stated)
8,147 to 149,CCOC(=O)N=C(c1ccc[nH]1)N1CCOCC1
9,231 to 232,O=C(O)c1ccc(-c2ccco2)cc1
10,153,O=C(CCl)c1ccc(C(=O)CCl)cc1
11,175,Cc1cc([N+](=O)[O-])cc(Cl)c1N
12,228 to 234,Nc1c(C=O)ccc2c1C(=O)c1ccccc1C2=O
13,39,CC(=O)C=C(C)N
14,92,CC1CCC(C)(C(=O)NNc2ccccc2)C1(C)C (configuration not stated)
15,74 to 77,CCCCCCCCC(=O)OC1CCC2(C)C(=CCC3C2CCC2(C)C(C(C)CCCC(C)C)CCC32)C1 (configuration not stated)
16,-1,CC(Cl)C(C)(C)C (configuration not stated)
17,-28,Cc1cccc(Cc2ccccc2)c1
18,-35,CCCCCC(C)=O
19,79 to 80,COc1cccc(OC)c1SC
20,108 to 110,O=C(O)CCc1cc(Br)c(O)c(Br)c1
21,186 to 187,Cn1cncc1C(=O)NN
22,21,Cc1cc(C)c(C(C)C)cc1C
23,-48,CCCCCCCc1ccccc1

row,melting point [°C],Compound
1,137 to 138,CCOC(=O)C(C#N)=Cc1ccc(Cl)cc1
2,155,O=C(c1ccc(Br)cc1)c1noc(-c2ccc(Br)cc2)c1S(=O)(=O)c1ccccc1
3,122,CC(=O)CCc1ccc(CCC(C)NC(=O)c2ccccc2)cc1 (configuration not stated)
4,108,Cc1cc(CC(C)CC(C)(C)C)n(O)c(=O)c1 (configuration not stated)
5,112,COc1c(F)ccc(C(N)=O)c1F
6,85 to 89,CC(C)(C)NC[C@H](O)CO
7,228 to 231,CCOC1OC2C(CO)OC(n3cnc4c(N)ncnc43)C2O1 (configuration not stated)
8,141 to 142,O=C(O)/C=C/c1cccc2c(Br)ccc([N+](=O)[O-])c12
9,75,CC(=O)c1c(C)c(C)cc(C)c1C
10,115 to 117,O=C(CBr)c1ccc(-c2ccccc2)s1
11,32,Cc1ccc(F)c(O)c1
12,68 to 69,Cc1nc(-c2ccc(C(F)(F)F)cc2)sc1Br
13,117 to 118,Cc1nc(-c2ccccc2)sc1C(=O)CBr
14,238,CC(CN1CC(=O)NC(=O)C1)N1CC(=O)NC(=O)C1 (configuration not stated)
15,130,O=C(OC(=O)c1ccc(C(F)(F)F)cc1)c1ccc(C(F)(F)F)cc1
16,360,Cc1c(C(=O)O)sc2sc(C(=O)O)c(C)c12
17,76 to 77,CCOC(=O)C=Cc1ccccc1N
18,210 to 212,NS(=O)(=O)c1ccc(N=C=S)cc1
19,182 to 184,Brc1ccc(C#Cc2ccc(Br)cc2)cc1
20,188,O=C(O)c1nccnc1C(=O)O
21,151,COc1cc(C(=O)O)cc(OC(C)=O)c1OC
22,180 to 183,NC(=S)C1COc2ccccc2O1 (configuration not stated)
23,164 to 167,NC(=NO)c1ccc(Oc2ccc(F)cc2F)c([N+](=O)[O-])c1

row,melting point [°C],Compound
1,61,CC(C)(C)OC(=O)N1CCC[C@H]1CO
2,230 to 235,CC1(C)C(=O)OC2=C(CC3C4CC=C5CC(O)CCC5(C)C4CCC23C)C1c1ccccc1 (configuration not stated)
3,169,CC(Oc1ccc(Cl)cc1Cl)C(=O)Nc1ccc2nc(SCc3ccccc3)sc2c1 (configuration not stated)
4,85 to 86,COc1ccc(OC)c2ccccc12
5,-16,CC(C)c1cccc2ccccc12
6,215 to 217,[O-][N+]1=C(c2ccccn2)/C(=N\O)c2ccccc21
7,270 to 320,N#Cc1ccc2c(c1)[N+]([O-])=C(c1cccc(C3=[N+]([O-])c4cc(C#N)ccc4C3=O)c1)C2=O
8,136 to 139,Cc1cc(C(=O)Nc2ccccc2)no1
9,29,Cc1cc(C)c(I)c(C)c1
10,136 to 143,CCOC(=O)c1cnc(NCc2ccccc2)s1
11,492,O=C1c2ccccc2-c2ccc3c4ccc5c6c(ccc(c7ccc1c2c73)c64)C(=O)c1ccccc1-5
12,-30,NCCNCCNCCNCCN
13,285,Cc1ccc(/N=N/c2c(N)nn3c(C)cc(=O)[nH]c23)cc1
14,134,CC(=O)Oc1ccc(C(c2ccc(OC(C)=O)cc2)c2ccccn2)cc1
15,160 to 163,COC(=O)c1ccc(-c2nc(C)no2)cc1
16,163,CC(=O)Nc1ccc(C#N)c(C)c1
17,227 to 229,CC(CC(=O)O)c1ccc(C(=O)O)cc1 (configuration not stated)
18,87 to 88,Cc1oc(-c2ccccc2)nc1C=O
19,61 to 63,O=C=Nc1ccc(OCc2ccccc2)cc1
20,286 to 288,C[C@H](N)C(=O)N[C@@H](C)C(=O)O (H-Ala-Ala-OH)
21,63 to 65,O=S(=O)(Cl)c1cc(Br)c(Cl)s1
22,102,CCCCC(C(N)=O)n1nc2ccccc2n1 (configuration not stated)
23,216,Nc1c(O)cccc1[N+](=O)[O-]

row,melting point [°C],Compound
1,190 to 195,COc1ccc(-c2noc(C)c2C(=O)O)cc1
2,275,CC(=O)N1c2cc3[nH]c(C)cc3cc2CC1C (configuration not stated)
3,131 to 133,Cc1oc(-c2ccccc2)nc1CC(=O)O
4,168 to 174,CCOC(=O)C(=NOC(C)(C)C(=O)OC(C)(C)C)c1csc(N)n1
5,61,COC(=O)c1ccc(I)c(C)c1
6,131 to 134,C[C@@H](OC(C)(C)C)[C@H](NC(=O)OCC1c2ccccc2-c2ccccc21)C(=O)O
7,151,O=C(C1=NOC2C(=O)N(c3ccc(F)cc3)C(=O)C12)c1ccc(Cl)cc1 (configuration not stated)
8,120 to 121,O[C@@H]1CC2=C(CCCC2)C[C@@H]1O
9,75 to 76,Cc1nn(-c2ccccc2)nc1CO
10,29.5,COc1ccc(N)c(C)c1
11,41,Cc1ccc(C#N)cc1Br
12,115,CC(C)C(O)C1(C)CCC(C(=O)O)C(C)(C)O1 (configuration not stated)
13,57 to 59,CC(C)(C)OC(=O)N1CCN(Cc2ccc(C=O)cc2)CC1
14,155,Cc1cccc(NN=C2C(=O)NN=C2C(F)(F)F)c1
15,283 to 285,CC12CCC(C(=CC=C3C(=O)C4(C)CCC3C4(C)C)C1=O)C2(C)C
16,178 to 182,O=C(O)Cc1ccccc1C(=O)O
17,217 to 219,O=C(Nc1ccccc1)OC1CCCCCC1OC(=O)Nc1ccccc1 (configuration not stated)
18,83 to 85,Cc1ccc(O)c(C(=O)c2ccccc2)c1
19,301,O=C(O)/C=C/C=C/C(=O)O
20,145 to 147,Clc1ccc(Cc2c(N=Cc3ccc(OCc4ccccc4)cc3)n[nH]c2N=Cc2ccc(OCc3ccccc3)cc2)cc1
21,147,Cc1ccc(S(=O)(=O)N/N=C2\C=CC(C)(c3ccccc3)CC2)cc1 (configuration not stated)
22,56 to 57,Cc1cc(C=O)nn1C
23,70 to 74,Cc1c(Br)cc(N)c(N)c1C

row,Compound,melting point [°C]
1,CC(=O)OCC(=O)C1(O)CCC2(O)C3CCC4=CC(=O)CCC4(C)C3CCC12C (configuration not stated),236
2,CC(C)(c1cc(Cl)c(O)c(Cl)c1)c1cc(Cl)c(O)c(Cl)c1,135
3,Brc1cc2c(cc1Br)Oc1ccccc1O2,158
4,CNC(=O)Oc1cc(C)c(N(C)C)c(C)c1,85
5,C=CC(Cl)CCl (configuration not stated),-61
6,Fc1cc2c(cc1F)Oc1cc(Cl)c(Cl)cc1O2,223
7,O=S(=O)(Cl)c1sccc1Br,39 to 41.5
8,Cc1cc(-c2cc(C)c(N)c(C)c2)cc(C)c1N,170
9,C=C[Si]12OCCN(CCO1)CCO2,163 to 165
10,Cc1ccc(CBr)cc1,35
11,COC=C(C(=O)OC)c1ccccc1Oc1cc(Oc2ccccc2C#N)ncn1,116
12,N#CC(O)c1ccccc1 (configuration not stated),-10
